Reference: PubChem BioAssay (NCI)
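Five concentrations, 48 hours, 96-well plates. Here, GI50 denotes the concentration required for 50% inhibition of growth. TGI: concentration producing complete growth inhibition.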

Assays:
Assay in all cases: growth of human tumour cells (NCI), 48 h
SNB-78 CNS = test system: SNB-78 CNS
RPMI-8226 leukemia = test system: RPMI-8226 leukemia
SNB-75 CNS = test system: SNB-75 CNS
SF-268 CNS = test system: SF-268 CNS
SK-OV-3 ovarian = test system: SK-OV-3 ovarian
SF-539 CNS = test system: SF-539 CNS
OVCAR-4 ovarian = test system: OVCAR-4 ovarian
DMS 273 small cell lung = test system: DMS 273 small cell lung
NCI-H460 lung = test system: NCI-H460 lung
MDA-MB-435 = test system: MDA-MB-435

| SMILES | TGI (SNB-78 CNS) | TGI (RPMI-8226 leukemia) | TGI (SNB-75 CNS) | TGI (SF-268 CNS) | TGI (SK-OV-3 ovarian) | TGI (SF-539 CNS) | TGI (OVCAR-4 ovarian) | TGI (DMS 273 small cell lung) | TGI (NCI-H460 lung) | TGI (MDA-MB-435) | GI50 (RPMI-8226 leukemia) | GI50 (SNB-75 CNS) | GI50 (SF-268 CNS) | GI50 (SK-OV-3 ovarian) | GI50 (SF-539 CNS) | GI50 (OVCAR-4 ovarian) | GI50 (NCI-H460 lung) | GI50 (MDA-MB-435) |
| --- | --- | --- | --- | --- | --- | --- | --- | --- | --- | --- | --- | --- | --- | --- | --- | --- | --- | --- |
| O=C(CC1(O)C(=O)Nc2c(Cl)cc(Cl)cc21)c1ccccc1 (stereo not given) | > 100 µM | > 100 µM | > 100 µM | > 100 µM | > 100 µM | > 100 µM | > 100 µM | > 100 µM | > 100 µM |  |  |  |  |  |  |  |  |  |
| COc1ccc(N2C(=O)C3CC(c4ccc(Br)cc4)c4c([nH]c5ccccc45)C3C2=O)cc1 (stereo not given) | 36.3 µM | > 100 µM | 22.5 µM | 23.4 µM |  | 11.7 µM | 9.29 µM | 18.2 µM | 17.2 µM |  |  |  |  |  |  |  |  |  |
| CC(C)(C)C(=O)N1C(C(=O)O)Cc2ccccc2[C@@H]1Cc1ccccc1 (stereo not given in full) | > 100 µM | > 100 µM | > 100 µM | > 100 µM | > 100 µM | > 100 µM | > 100 µM | > 100 µM | > 100 µM |  |  |  |  |  |  |  |  |  |
| Cc1ccc(NCC2(/N=C/c3ccccc3)OC(CO)C(O)C2O)cc1 (stereo not given) |  | > 100 µM | > 100 µM | > 100 µM |  | > 100 µM | > 100 µM | > 100 µM | > 100 µM |  |  |  |  |  |  |  |  |  |
| COc1ccc(/C=C/c2cc(OC)c(OC(C)=O)c(OC)c2)cc1 | 76.1 µM | > 100 µM | 60.5 µM | > 100 µM | > 100 µM |  | > 100 µM | > 100 µM | 60.4 µM |  |  |  |  |  |  |  |  |  |
| Cc1cccc(-c2nnc3s/c(=C\c4ccc(N(C)C)cc4)c(=O)n23)c1 | > 100 µM | > 100 µM | > 100 µM | > 100 µM | > 100 µM | > 100 µM | > 100 µM | > 100 µM | > 100 µM |  |  |  |  |  |  |  |  |  |
| O=C1C2CCN(CC2)C1CN1CCOCC1 (stereo not given) | 56.1 µM | 13.7 µM | 36.2 µM | 34.3 µM | 31.7 µM | 29 µM | 10.7 µM | 25.3 µM | 33.7 µM | > 100 µM |  |  |  |  |  |  |  |  |
| NC(=S)N1N=C2CCCCCC[C@@H]2[C@H]1c1ccccc1 | > 100 µM | 45 µM | > 100 µM | > 100 µM | > 100 µM | > 100 µM |  | > 100 µM | > 100 µM |  |  |  |  |  |  |  |  |  |
| CN(C)CCNc1ccc2ncn3c4ccc(O)cc4c(=O)c1c23 | 21.4 µM | 13.1 µM | 10.2 µM | 10.7 µM | 17 µM | 14.7 µM | 4.89 µM | 12.4 µM | 6.5 µM | 14.7 µM |  |  |  |  |  |  |  |  |
| CCOC(=O)C1(C(=O)OCC)C(C(C)(C)C)=C(C)c2ccccc21 |  | 55.8 µM | 61.8 µM | 39.1 µM | 69.5 µM | 32.8 µM | 45.3 µM | 25.5 µM | 26.3 µM |  |  |  |  |  |  |  |  |  |
| COc1ccc(C(=O)C2CCC(C(=O)O)C2)cc1 (stereo not given) | > 100 µM | > 100 µM | > 100 µM |  | > 100 µM | > 100 µM | > 100 µM | > 100 µM | > 100 µM |  |  |  |  |  |  |  |  |  |
| CN1C(=O)CCC(N2C(=O)c3cccc(NCCOCCOCCNC(=O)c4cc5c(o4)C(=O)c4ccccc4C5=O)c3C2=O)C1=O (stereo not given) |  | 7.06 µM | 4.72 µM | 6.79 µM | 12.4 µM | 3.02 µM | 2.8 µM |  | 2.97 µM | 2.28 µM | 2.32 µM | 2.74 µM | 2.38 µM | 3.84 µM | 1.63 µM | 1.43 µM | 1.33 µM | 1.05 µM |
| CN(C)c1ccc(/C=N/NC(N)=S)nc1 |  | > 100 µM | > 100 µM | 28.2 µM | > 100 µM | > 100 µM | > 100 µM |  | 29.3 µM | > 100 µM | 3.21 µM | 1.82 µM | 2.22 µM | 4.5 µM | 1.81 µM | 4.3 µM | 2.89 µM | 4.01 µM |
| COc1nc(N)nc2c1ncn2C1CC(O)C(CO)O1 (stereo not given) |  | > 100 µM | > 100 µM | > 100 µM | > 100 µM | > 100 µM | > 100 µM |  | > 100 µM | > 100 µM |  |  |  |  |  |  |  |  |
| COc1ccc(-c2ncnc3c2ncn3CC#CCCl)cc1 |  | 20 µM | 4.84 µM | 4.13 µM | 22.7 µM | 20.9 µM | 12.5 µM |  | 12.4 µM | 11.5 µM | 3.46 µM | 1.64 µM | 1.66 µM | 10.5 µM | 6.48 µM | 2.66 µM | 3.27 µM | 2.71 µM |
